Measurements: patent US20240424071A1, “NOVEL MUTANT OF RECOMBINANT GANODERMA LUCIDUM IMMUNOMODULATORY PROTEIN AND USE THEREOF” (CHANGCHUN INTELLICROWN PHARMACEUTICAL CO., LTD., priority 2021, published 2024)

B1: EEAEAEAEPK+rLZ-8 mutant: recombinant protein: spacer peptide EEAEAEAEPK (SEQ ID NO: 9) linked to rLZ-8 mutant (SEQ ID NO: 13) (protein)
chain: EEAEAEAEPKMSDTALIFRLAWDVKKLSFDYTPNWGRGNPNNFIDTVTFPKVLTDKAYTYRVAVSGRNLGVKPSYAVESKGSQKVNFLEYNSGYGIADTNTIQVFVVDPDTNNDFIIAQWN
modifications: EEAEAEAEPK-rLZ-8 mutant (D70K)

How the values were obtained:
[1] = system: LI6669 human liver cancer orthotopic transplantation tumor; assay: LI6669 human liver cancer orthotopic transplantation tumor model (PDX), survival; format: in vivo, BALB/c nude mouse; conditions: Group 2, 50 mg/kg QD p.o. for 28 days; solvent control […] days
Excerpt: LI6669 is a HuPrime® orthotopic transplantation model originated from a patient's liver cancer.
Tumor tissue was collected from a LI6669 tumor-bearing mouse, a HuPrime® orthotopic transplantation model of liver, and cut to tumor pieces with a diameter of 2-3 mm, which were inoculated into the upper left lobe of liver of a Balb/c nude mouse.
When the average tumor volume of the tumor-bearing mice reached about 50-150 mm^3, the mice were randomly grouped by weight according to Table 3 of “3. Design of Experiment”. The grouping day was set as Day 0, and the administration began on Day 1. […].
After tumor cell inoculation, route monitoring comprises the tumor growth and the effect of treatment on normal behaviors of animals, specially including the activity, food intake and water consumption, weight gain or loss, eyes, fur of experimental animals, and other abnormal conditions. The clinical symptoms observed during the experiments were all recorded in the original data. After drug administration, the mice were measured twice a week for their weights. Observation was made to record the mouse requiring euthanasia and the corresponding survival time.

[2] = system: human non-small cell lung cancer cell line A549; assay: Killing effect on tumor cells, CellTiter-Fluor Cell Viability Assay; format: cell-based; conditions: 48 h, 2% fetal bovine serum medium
Procedure: CellTiter™-Flour Cell Viability Assay Reagent kit was used to detect the killing effects of the EAEA+rLZ-8 mutant (SEQ ID NO: 14) and the […]+rLZ-8 mutant (SEQ ID NO: 15) on tumor cells (human non-small cell lung cancer cell line A549) in vitro. The recombinant protein was diluted with 2% fetal bovine serum culture medium to produce test solutions with concentrations of 100 μg/mL, 50 μg/mL, 25 μg/mL, 12.5 μg/mL, 6.25 μg/mL, 3.125 μg/mL, 1.5625 μg/mL, 0.78125 μg/mL, 0.390625 μg/mL, 0.1953125 μg/mL, and 0.09765625 μg/mL, total 11 concentrations.
The dilutions were added into a 96-well plate containing A549 cells with 100 μL/well. For each group of concentration, 3 parallel wells were set and marked. A cell control group (i.e., cells only) was set at 100 μL/well, with 6 parallel wells. The plates were cultured in a CO2 incubator at 5% CO2 and 37° C. for 48 h.
100 μL of prepared CellTiter™-Flour Cell Viability Assay Reagent (1 mLL Assay Buffer; 1 μl GF-AFC Substrate) was added into each well. The plates were shaken for mixing well, and incubated in a CO2 incubator at 5% CO2 and 37° C. for not less than 30 min. The fluorescence value was detected with a microplate reader at a wavelength of 400EX/505EM, and the IC50value was calculated.

Molecule	Median Survival [1]	IC50, killing effect on lung cancer cell line A549 [2]
CNC(=O)c1cc(Oc2ccc(NC(=O)Nc3ccc(Cl)c(C(F)(F)F)c3)cc2)ccn1 [Sorafenib, reference compound]	>28 days	–
B1	–	1.91 µg/mL
